Reference: patent US20230382924A1, “MODULATORS OF CYSTIC FIBROSIS TRANSMEMBRANE CONDUCTANCE REGULATOR” (VERTEX PHARMACEUTICALS INCORPORATED, priority 2020, published 2023)
Read-outs that look alike come from different tables or passages of the source. One block for each molecule: values may come before it.

Target: CFTR (Homo sapiens, UniProt P13569)
Assay: Membrane Potential Dye, Enteroid Assay A
Type: cell-based
Details: for EC50: read-out: Ent. A EC50
Summary of the method: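 Signal is reported as % Activity relative to a triple CFTR modulator control (3 μM + 3 μM + 300 nM acute). Read-out: membrane potential fluorescence (20 μM methyl oxonol) monitored for 15 min after chloride-free stimulation. Dye loading took 25 min at room temperature in Bath 1 buffer containing CaCC blockers.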

Sequence of CFTR (P13569 with tags, fused parts or gaps DEL508-508): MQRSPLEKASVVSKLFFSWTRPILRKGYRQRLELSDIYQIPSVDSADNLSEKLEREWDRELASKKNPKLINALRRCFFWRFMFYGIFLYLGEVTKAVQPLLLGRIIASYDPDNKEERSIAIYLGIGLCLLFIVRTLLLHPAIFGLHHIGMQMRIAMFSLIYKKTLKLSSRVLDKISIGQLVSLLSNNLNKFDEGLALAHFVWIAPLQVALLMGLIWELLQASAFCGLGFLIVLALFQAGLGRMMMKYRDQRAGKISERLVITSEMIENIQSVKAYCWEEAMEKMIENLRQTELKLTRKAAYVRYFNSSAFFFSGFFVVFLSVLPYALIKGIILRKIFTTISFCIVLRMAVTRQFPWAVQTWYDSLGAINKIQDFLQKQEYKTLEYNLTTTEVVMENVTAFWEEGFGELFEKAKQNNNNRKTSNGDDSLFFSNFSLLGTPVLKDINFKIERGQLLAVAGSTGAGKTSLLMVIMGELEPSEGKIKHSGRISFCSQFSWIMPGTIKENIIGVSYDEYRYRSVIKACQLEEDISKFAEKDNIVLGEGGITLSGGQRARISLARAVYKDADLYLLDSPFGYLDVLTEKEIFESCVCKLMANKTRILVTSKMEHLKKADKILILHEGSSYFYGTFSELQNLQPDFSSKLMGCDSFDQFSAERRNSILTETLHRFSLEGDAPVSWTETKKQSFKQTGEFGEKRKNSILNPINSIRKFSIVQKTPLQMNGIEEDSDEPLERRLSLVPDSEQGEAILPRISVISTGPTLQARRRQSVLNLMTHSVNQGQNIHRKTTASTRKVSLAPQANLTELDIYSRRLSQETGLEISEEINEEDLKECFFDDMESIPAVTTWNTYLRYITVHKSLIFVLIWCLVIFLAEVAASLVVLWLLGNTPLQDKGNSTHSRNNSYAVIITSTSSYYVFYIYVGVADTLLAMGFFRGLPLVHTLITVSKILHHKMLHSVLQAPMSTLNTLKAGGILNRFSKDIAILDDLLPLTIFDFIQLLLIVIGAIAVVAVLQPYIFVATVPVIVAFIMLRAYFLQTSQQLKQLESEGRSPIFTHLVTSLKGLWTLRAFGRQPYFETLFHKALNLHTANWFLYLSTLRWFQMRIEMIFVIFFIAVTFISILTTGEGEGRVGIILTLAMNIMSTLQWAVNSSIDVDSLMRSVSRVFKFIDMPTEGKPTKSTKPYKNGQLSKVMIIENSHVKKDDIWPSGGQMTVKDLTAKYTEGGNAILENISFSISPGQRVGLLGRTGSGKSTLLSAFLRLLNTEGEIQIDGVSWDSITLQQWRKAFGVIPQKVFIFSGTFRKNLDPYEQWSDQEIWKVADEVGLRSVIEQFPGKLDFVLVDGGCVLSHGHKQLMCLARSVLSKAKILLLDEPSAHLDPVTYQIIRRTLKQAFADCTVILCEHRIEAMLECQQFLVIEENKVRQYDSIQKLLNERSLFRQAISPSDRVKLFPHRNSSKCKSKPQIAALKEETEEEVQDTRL

SMILES: Cc1cccc(C)c1-c1cc2nc(n1)NS(=O)(=O)c1cccc(c1)C(=O)NCC(c1ccc(C3CCC3)cc1)O2 (stereo not drawn) [Compound 12, 10-(4-Cyclobutylphenyl)-6-(2,6-dimethylphenyl)-2,2-dioxo-9-oxa-2λ^6-thia-3,5,12,19-tetrazatricyclo[12.3.1.14,8]nonadeca-1(18),4(19),5,7,14,16-hexaen-13-one]
- Ent. A Max Activity (Table 9): +++ (+++ is >60%)
- EC50 (Table 9): < 1 µM

SMILES: Cc1cccc(C)c1-c1cc2nc(n1)NS(=O)(=O)c1cc(ccn1)C(=O)N[C@H](CC1CCCCC1)CO2 [Compound 69, (11R)-11-(Cyclohexylmethyl)-6-(2,6-dimethylphenyl)-2,2-dioxo-9-oxa-2λ^6-thia-3,5,12,17,19-pentazatricyclo[12.3.1.14,8]nonadeca-1(17),4(19),5,7,14(18),15-hexaen-13-one]
- Ent. A Max Activity (Table 8): +++ (+++ is >60%)
- EC50 (Table 8): < 1 µM

SMILES: Cc1cccc(C)c1-c1cc2nc(n1)NS(=O)(=O)c1cccc(c1)C(=O)N[C@@H](CC(F)(F)F)CO2 (single isomer, unassigned) [Compound 94, 6-(2,6-dimethylphenyl)-11-(2,2,2-trifluoroethyl)-9-oxa-2λ^6-thia-3,5,12,19-tetraazatricyclo[12.3.1.14,8]nonadeca-1(17),4(19),5,7,14(18),15-hexaene-2,2,13-trione]
- Ent. A Max Activity (Table 9): +++ (+++ is >60%)
- EC50 (Table 9): 1 to 3 µM

SMILES: Cc1cccc(C)c1-c1cc2nc(n1)NS(=O)(=O)c1cccc(c1)C(=O)NCC(c1ccccn1)O2 (stereo not drawn) [Compound 234]
- Ent. A Max Activity (Table 8): + (+ is <30%)

SMILES: Cc1cccc(C)c1-c1cc2nc(n1)NS(=O)(=O)c1cccc(c1)C(=O)NCC(c1ccc(Br)cc1)O2 (single isomer, unassigned) [Compound 19, 10-(4-bromophenyl)-6-(2,6-dimethylphenyl)-2,2-dioxo-9-oxa-2λ^6-thia-3,5,12,19-tetrazatricyclo[12.3.1.14,8]nonadeca-1(18),4(19),5,7,14,16-hexaen-13-one]
- Ent. A Max Activity (Table 8): + (+ is <30%)

SMILES: CCC[C@H]1NC(=O)c2cccc(c2)S(=O)(=O)Nc2nc(cc(-c3c(C)cccc3C)n2)O[C@@H]1c1ccc(C(C)(C)C)cc1 [Compound 227]
- Ent. A Max Activity (Table 9): +++ (+++ is >60%)
- EC50 (Table 9): < 1 µM

SMILES: Cc1cccc(C)c1-c1cc2nc(n1)NS(=O)(=O)c1cccc(c1)C(=O)N[C@@H]1CN(Cc3ccccc3)CC[C@H]1O2 [Compound 61, (3R,8R)-6-Benzyl-20-(2,6-dimethylphenyl)-2-oxa-16λ^6-thia-6,9,17,19,22-pentaazatetracyclo[16.3.1.111,15.03,8]tricosa-1(21),11,13,15(23),18(22),19-hexaene-10,16,16-trione]
- Ent. A Max Activity (Table 9): +++ (+++ is >60%)
- EC50 (Table 9): < 1 µM

SMILES: Cc1cccc(C)c1-c1cc2nc(n1)NS(=O)(=O)c1ccccc1C(=O)NCC(c1ccc(C(C)(C)C)cc1)O2 (stereo not drawn) [Compound 222]
- Ent. A Max Activity (Table 9): + (+ is <30%)

SMILES: COc1ccc2c(c1)c(C(=O)N1CCC3(CC1)CNC(=O)c1cccc(c1)S(=O)(=O)Nc1nc(cc(-c4c(C)cccc4C)n1)OC3)c(C)n2C1CC1 [Compound 451]
- Ent. A Max Activity (Enteroid Assay A): ++ (++ is 30-60%)
- EC50 (Enteroid Assay A): 3 to 30 µM

SMILES: CCCCC1(CCCC)COc2cc(-c3c(C)cccc3C)nc(n2)NS(=O)(=O)c2cccc(c2)C(=O)N1 [Compound 185]
- Ent. A Max Activity (Table 9): +++ (+++ is >60%)
- EC50 (Table 9): < 1 µM

SMILES: CC[C@H]1NC(=O)c2cccc(c2)S(=O)(=O)Nc2nc(cc(-c3c(C)cccc3C)n2)O[C@@H]1c1ccc(C(C)(C)C)cc1 [Compound 133]
- Ent. A Max Activity (Table 9): +++ (+++ is >60%)
- EC50 (Table 9): < 1 µM

SMILES: Cc1cccc(C)c1-c1cc2nc(n1)NS(=O)(=O)c1cccc(c1)C(=O)N[C@@H](CC(F)(F)F)CO2 (single isomer, unassigned) [Compound 93, 6-(2,6-dimethylphenyl)-11-(2,2,2-trifluoroethyl)-9-oxa-2λ^6-thia-3,5,12,19-tetraazatricyclo[12.3.1.14,8]nonadeca-1(17),4(19),5,7,14(18),15-hexaene-2,2,13-trione]
- Ent. A Max Activity (Table 9): ++ (++ is 30-60%)
- EC50 (Table 9): 3 to 30 µM

SMILES: Cc1cccc(C)c1-c1cc2nc(n1)NS(=O)(=O)c1cccc(c1)C(=O)NCC1(CCN(Cc3sccc3Oc3ccccc3)CC1)CO2 [Compound 83, 6-(2,6-Dimethylphenyl)-2,2-dioxo-1′-[(3-phenoxy-2-thienyl)methyl]spiro[9-oxa-2λ^6-thia-3,5,13,20-tetrazatricyclo[13.3.1.14,8]icosa-1(19),4(20),5,7,15,17-hexaene-11,4′-piperidine]-14-one]
- Ent. A Max Activity (Enteroid Assay A): +++ (+++ is >600%)
- EC50 (Enteroid Assay A): < 1 µM

SMILES: Cc1cccc(C)c1-c1cc2nc(n1)NS(=O)(=O)c1cccc(c1)C(=O)NCC(c1ccc(C(F)(F)C(F)(F)F)cc1)O2 (stereo not drawn) [Compound 22, 6-(2,6-Dimethylphenyl)-2,2-dioxo-10-[4-(1,1,2,2,2-pentafluoroethyl)phenyl]-9-oxa-2λ^6-thia-3,5,12,19-tetrazatricyclo[12.3.1.14,8]nonadeca-1(18),4(19),5,7,14,16-hexaen-13-one]
- Ent. A Max Activity (Table 9): +++ (+++ is >60%)
- EC50 (Table 9): < 1 µM

SMILES: CC(C)C[C@@H]1COc2cc(C3CCCCC3(C)C)nc(n2)NS(=O)(=O)c2cccc(c2)C(=O)N1 (stereo partly drawn) [Compound 68, (11R)-6-(2,2-Dimethylcyclohexyl)-11-isobutyl-2,2-dioxo-9-oxa-2λ^6-thia-3,5,12,19-tetrazatricyclo[12.3.1.14,8]nonadeca-1(18),4,6,8(19),14,16-hexaen-13-one]
- Ent. A Max Activity (Table 9): +++ (+++ is >60%)
- EC50 (Table 9): 1 to 3 µM

SMILES: Cc1cccc(C)c1-c1cc2nc(n1)NS(=O)(=O)c1cccc(c1)C(=O)NC(CCC1(C(F)(F)F)CC1)CO2 (stereo not drawn) [Compound 92, 6-(2,6-dimethylphenyl)-2,2-dioxo-11-[2-[1-(trifluoromethyl)cyclopropyl]ethyl]-9-oxa-2λ^6-thia-3,5,12,19-tetrazatricyclo[12.3.1.14,8]nonadeca-1(18),4(19),5,7,14,16-hexaen-13-one]
- Ent. A Max Activity (Table 8): +++ (+++ is >60%)
- EC50 (Table 8): < 1 µM

SMILES: Cc1cccc(C)c1-c1cc2nc(n1)NS(=O)(=O)c1cccc(c1)C(=O)NCCCC(c1ccc(C(C)(C)C)cc1)O2 (stereo not drawn) [Compound 54, 10-(4-tert-butylphenyl)-6-(2,6-dimethylphenyl)-2,2-dioxo-9-oxa-2λ^6-thia-3,5,14,21-tetrazatricyclo[14.3.1.14,8]henicosa-1(20),4(21),5,7,16,18-hexaen-15-one]
- Ent. A Max Activity (Table 9): +++ (+++ is >60%)
- EC50 (Table 9): < 1 µM

The remaining lines, values ahead:

- Ent. A Max Activity (Table 8): +++ (+++ is >60%)
- EC50 (Table 8): 1 to 3 µM
SMILES: COc1cccc(C)c1-c1cc2nc(n1)NS(=O)(=O)c1cccc(c1)C(=O)N[C@H](CC(C)(C)C)CO2 [Compound 304]

- EC50 (Table 8): < 1 µM
SMILES: Cc1cccc(C)c1-c1cc2nc(n1)NS(=O)(=O)c1cccc(c1)C(=O)NCC(c1ccc(OC(C)C)cc1)O2 (stereo not drawn) [Compound 249]

- Ent. A Max Activity (Enteroid Assay A): +++ (+++ is >600%)
- EC50 (Enteroid Assay A): 1 to 3 µM
SMILES: Cc1cccc(C)c1-c1cc2nc(n1)NS(=O)(=O)c1cccc(c1)C(=O)NCC(CC(C)C)O2 (stereo not drawn) [Compound 490]

- Ent. A Max Activity (Table 8): + (+ is <30%)
SMILES: Cc1cccc(C)c1-c1cc2nc(n1)NS(=O)(=O)c1cccc(c1)C(=O)NC[C@@H](CN1CCCCC1)O2 (stereo in doubt) [Compound 409]

- Ent. A Max Activity (Table 8): +++ (+++ is >60%)
- EC50 (Table 8): < 1 µM
SMILES: Cc1cccc(C2CNC(=O)c3cccc(c3)S(=O)(=O)Nc3nc(cc(-c4c(C)cccc4C)n3)O2)c1 (stereo not drawn) [Compound 404]

- EC50 (Table 8): < 1 µM
SMILES: Cc1cccc(C)c1-c1cc2nc(n1)NS(=O)(=O)c1cccc(c1)C(=O)NCC(c1ccc(C(F)(F)F)cc1)O2 (stereo not drawn) [Compound 403]

- Ent. A Max Activity (Enteroid Assay A): ++ (++ is 30-60%)
- EC50 (Enteroid Assay A): < 1 µM
SMILES: CC(C)C[C@@H]1COc2cc(C3=CC(C)CC3(C)C)nc(n2)NS(=O)(=O)c2cccc(c2)C(=O)N1 (stereo partly drawn) [Compound 320]

- Ent. A Max Activity (Table 9): + (+ is <30%)
- EC50 (Table 9): 3 to 30 µM
SMILES: Cc1cccc(C)c1-c1cc2nc(n1)NS(=O)(=O)c1cccc(c1)C(=O)N[C@@H]1CCN(C3CC4(CCCC4)C3)C[C@H]1O2 (stereo in doubt) [Compound 385]

- Ent. A Max Activity (Table 8): +++ (+++ is >60%)
- EC50 (Table 8): 1 to 3 µM
SMILES: Cc1cccc(C)c1-c1cc2nc(n1)NS(=O)(=O)c1cncc(c1)C(=O)N[C@H](CC(C)C)CO2 [Compound 413]

- Ent. A Max Activity (Enteroid Assay A): ++ (++ is 30-60%)
- EC50 (Enteroid Assay A): 3 to 30 µM
SMILES: CC[C@@H]1COc2cc(-c3c(C)cccc3C)nc(n2)NS(=O)(=O)c2cccc(c2)C(=O)N1 [Compound 353]

- Ent. A Max Activity (Enteroid Assay A): ++ (++ is 30-60%)
- EC50 (Enteroid Assay A): 1 to 3 µM
SMILES: CCC1CC=C(c2cc3nc(n2)NS(=O)(=O)c2cccc(c2)C(=O)N[C@H](CC(C)C)CO3)CC1 (stereo partly drawn) [Compound 322]

- Ent. A Max Activity (Table 8): + (+ is <30%)
SMILES: CC(C)C[C@@H]1COc2cc(-n3nccc3C(C)C)nc(n2)NS(=O)(=O)c2cccc(c2)C(=O)N1 [Compound 307]

- Ent. A Max Activity (Table 8): + (+ is <30%)
SMILES: Cc1ccc(C2CNC(=O)c3cccc(c3)S(=O)(=O)Nc3nc(cc(-c4c(C)cccc4C)n3)O2)cc1 (stereo not drawn) [Compound 406]

- Ent. A Max Activity (Enteroid Assay A): ++ (++ is 30-60%)
- EC50 (Enteroid Assay A): 3 to 30 µM
SMILES: Cc1cccc(C)c1-c1cc2nc(n1)NS(=O)(=O)c1cccc(c1)C(=O)NCC1(CCN(C(=O)[C@]3(C)CCCN3C(=O)OC(C)(C)C)CC1)CO2 [Compound 472]

- Ent. A Max Activity (Table 9): +++ (+++ is >60%)
- EC50 (Table 9): < 1 µM
SMILES: Cc1cccc(C)c1-c1cc2nc(n1)NS(=O)(=O)c1cccc(c1)C(=O)NC[C@@H](c1ccc(C3CC3)cc1)O2 [Compound 260]

- Ent. A Max Activity (Enteroid Assay A): ++ (++ is 30-60%)
- EC50 (Enteroid Assay A): 1 to 3 µM
SMILES: CC(C)C[C@@H]1COc2cc(C3=CCC(C)(C)CC3)nc(n2)NS(=O)(=O)c2cccc(c2)C(=O)N1 [Compound 323]

- Ent. A Max Activity (Table 9): +++ (+++ is >60%)
- EC50 (Table 9): < 1 µM
SMILES: CC(C)C[C@@H]1COc2cc(-c3ccccc3OCc3ccccc3)nc(n2)NS(=O)(=O)c2cccc(c2)C(=O)N1 [Compound 393]

- EC50 (Table 8): < 1 µM
SMILES: Cc1cccc(C)c1-c1cc2nc(n1)NS(=O)(=O)c1cccc(c1)C(=O)NCC(Cc1ccc(C(C)(C)C)cc1)O2 (stereo not drawn) [Compound 242]

- Ent. A Max Activity (Enteroid Assay A): ++ (++ is 30-60%)
- EC50 (Enteroid Assay A): 1 to 3 µM
SMILES: Cc1cccc(C)c1-c1cc2nc(n1)NS(=O)(=O)c1cccc(c1)C(=O)NCC1(CCN(C(=O)c3cc4ccccc4n3CC#N)CC1)CO2 [Compound 452]
